Laboratory results published in article PMC7651685 (Psychopharmacology, 2020).
Where “and” joins values, the source holds several entries; their conditions need not be identical. Identical values can stand only once. Counter-ions that a name gives are not always drawn. Like-named read-outs stand apart in the source and are kept apart here.

Experiments:
[1] = system: dopamine transporters (DAT); assay: [18F]-FE-PE2I PET displacement: DAT occupancy, displacement half-time and brain entry (modified GRTM); format: in vivo, rhesus macaques (Macaca mulatta); settings: for Brain entry time, Caudate / Brain entry time, Putamen / Brain entry time, Mean: modified GRTM; for Brain entry time, Mean: mean over animals and regions; for Percent maximum displacement (= % DAT occupancy), Caudate\Putamen mean, Mean ± SD: group mean of four animals
Protocol: Two male and two female rhesus macaques (Macaca mulatta) housed at the Yale University School of Medicine (New Haven, CT) were used for the [^18F]-FE-PE2I imaging. In all experiments, [^18F]-FE-PE2I was administered as a bolus plus constant infusion (Kbol from 168 to 216 min; total radioactivity = 162 ± 27 MBq) over 4 h to establish steady-state DAT binding. Bolus/infusion delivery parameters (i.e., Kbol) for [^18F]-FE-PE2I for each monkey were determined from baseline [^18F]-FE-PE2I scans that utilized single bolus intravenous injections of the radiotracer (Carson et al. [1993]). Identical procedures were used for list-mode image acquisition with a Siemens Focus 220 PET scanner for all DAT brain studies. The dynamic PET imaging series were reconstructed into 57 frames (6 × 0.5 min, 3 × 1 min, 2 × 2 min, and 46 × 5 min) using filtered back projection with standard corrections for random, scatter, and attenuation provided by the camera manufacturer.
At 2 h into the [^18F]-FE-PE2I scan, under tracer steady-state conditions, DAS or MPH was administered i.v. either as a 3 min i.v. bolus or as a bolus plus 4-step infusion over 40 min (four 10-min steps). The drug bolus experiments were carried out in all four rhesus macaques, each receiving DAS at 0.2 and 0.1 mg/kg and MPH at 0.5 and 0.1 mg/kg. The drug bolus plus 4-step infusion experiments were conducted in two rhesus macaques, each receiving DAS bolus injection over 30 s followed by a 4-step infusion over 40 min (four 10-min steps, 1.55, 1.45, 1.4, 1.3 mg) and MPH bolus injection over 30 s followed by an infusion over 40 min (four 10-min steps, 1.15, 1, 0.85, 0.75 mg).
Reconstructed dynamic PET images were transferred and analyzed using the image processing software package PMOD 3.6 (PMOD Technologies, Zurich, Switzerland). The PET images were normalized to an MR rhesus brain template (Rohlfing et al. [2012]) and a region of interest (ROI) atlas including the caudate nucleus, putamen, and cerebellar cortex was applied. Average activity concentration (kBq/cc) within each ROI was determined and time-activity curves (TAC) representing the regional brain activity concentration over time were generated. TACs were additionally expressed in SUV units (g/ml) by normalizing by the weight of the animal and the injected dose.
Reductions in radiotracer binding following administration of DAS or MPH were used to determine DAT occupancy while reductions in radiotracer binding over time were used to estimate brain entry and binding rates. The displacement half-time is defined as the time it takes from drug administration until 50% of maximal tracer displacement is achieved. Tracer displacement half-times were estimated using average uptake levels from the baseline and displacement experiments and expressing the change in standardized uptake values (SUV) units as a fraction (normalized) of the observed SUV difference at the end of the experiment. Normalized SUV values for caudate and putamen respectively were plotted against time for each dose of DAS and MPH respectively to estimate the drug displacement half-time.
Brain entry of DAS and MPH was determined by analyzing the [^18F]-FE-PE2I TACs in the putamen and caudate nucleus using a kinetic model using the cerebellar cortex as a reference region. The kinetic model is based on the generalized reference tissue model (GRTM; Votaw et al. [2002]) and a recent report of brain entry and binding rates measurement (Nicolas et al. [2016]). […] The half-life of the brain entry and binding of the drug was estimated as ln(2)/α. The kinetic model employs 5 parameters: R1, BPND, r, α, and k2′ where R1 is the relative tracer influx rate constant and k2′ is the reference tissue tracer efflux rate constant. The maximum occupancy was constrained to the measured displacement, while k2′ and α were constrained to a common value across the putamen and caudate nucleus.

[2] = Plasma levels of DAS or MPH during the displacement studies; format: in vivo, rhesus macaques (Macaca mulatta)
Protocol: Venous blood samples (1 ml) were collected during the respective bolus and 4-step infusion displacement studies to measure the plasma levels of either DAS or MPH. Blood samples were collected in K3 EDTA vials, processed for plasma, frozen, and stored at − 20 °C until required for HPLC analysis of either DAS or MPH levels.

[3] = Tolerability and vital signs after i.v. administration; format: in vivo, rhesus macaques
Protocol: PET experiments within an animal were spaced at least 2 weeks apart to allow recovery from anesthesia. Animals were fasted for 18–24 h prior to each PET scan experiment. At 2–2.5 h before radiotracer injection, the animal was anesthetized with ketamine (10–15 mg/kg) and glycopyrrolate 0.01 mg/kg i.m., transferred to the PET camera, and intubated with an endotracheal tube for continued anesthesia with 2.0–2.5% isoflurane administered through a rebreathing circuit. An intravenous line was placed and used for injection of radiotracer and administration of the drug. A heated water blanket was used to maintain normal body temperature (37 °C). Vital signs, including heart rate, blood pressure, respiration rate, oxygen saturation, and body temperature, were monitored approximately every 1 to 15 min during the study (data not shown).
Animals tolerated i.v. administration of DAS or MPH at all doses examined.

[4] = system: DAT; settings: ref Spencer et al. [2006]; cited from earlier work
[5] = system: plasma protein; settings: ref Faraj et al. [1974]; cited from earlier work
[6] = 0.1 mg/kg MPH, bolus administration, individual animals A-D
[7] = 0.5 mg/kg MPH, bolus administration, individual animals A-D
[8] = 4.3 mg MPH, bolus + 4 step infusion, individual animals A, B
[9] = MPH 0.1 mg/kg i.v. 3 min bolus, individual animals A-D
[10] = MPH 0.5 mg/kg i.v. 3 min bolus, individual animals A-D
[11] = MPH 4.3 mg, bolus plus 4-step infusion over 40 min, individual animals A, B

## COC(=O)C(c1ccccc1)C1CCCCN1 (racemic) [MPH, (±)-Methyl α-Phenyl-α-(2-piperidyl)acetate hydrochloride, reference compound]
[1]; 0.1 mg/kg MPH i.v. bolus
  Averaged displacement half-time (between caudate and putamen): 15.5 min
[1]; [6]
  Brain entry time, Caudate: 2.57 min and 3.41 min and 2.60 min and 3.44 min
  Brain entry time, Putamen: 2.34 min and 2.59 min and 2.91 min and 4.28 min
[1]; 0.1 mg/kg MPH, bolus administration
  Brain entry time, Mean: 3 min and 3.02 ± 0.65 min and 3.02 min
[1]; 0.5 mg/kg MPH i.v. bolus
  Averaged displacement half-time (between caudate and putamen): 11.5 min
[1]; [7]
  Brain entry time, Caudate: 2.25 min and 2.19 min and 1.78 min and 2.65 min
  Brain entry time, Putamen: 2.07 min and 2.08 min and 2.09 min and 2.00 min
[1]; 0.5 mg/kg MPH, bolus administration
  Brain entry time, Mean: 2 min and 2.14 ± 0.25 min and 2.14 min
[1]; [8]
  Brain entry time, Caudate: 7.15 min and 6.48 min
  Brain entry time, Putamen: 5.77 min and 7.69 min
[1]; 4.3 mg MPH, bolus + 4 step infusion
  Brain entry time, Mean: 6.77 min
[1]; MPH 0.1 mg/kg i.v. 3 min bolus
  Percent maximum displacement (= % DAT occupancy), Caudate\Putamen mean, Mean ± SD: 69% and 68.60 ± 5.21%
[1]; [9]
  Percent maximum displacement (= % DAT occupancy), Caudate nucleus: 72.4% and 72.7% and 64.2% and 60.4%
  Percent maximum displacement (= % DAT occupancy), Caudate\Putamen mean: 73.1% and 63.6% and 64.6%
  Percent maximum displacement (= % DAT occupancy), Putamen: 73.7% and 73.5% and 62.9% and 68.8%
[1]; MPH 0.5 mg/kg i.v. 3 min bolus
  Percent maximum displacement (= % DAT occupancy), Caudate\Putamen mean, Mean ± SD: 88% and 88.20 ± 2.62%
[1]; [10]
  Percent maximum displacement (= % DAT occupancy), Caudate nucleus: 91.7% and 87.9% and 83.9% and 87.0%
  Percent maximum displacement (= % DAT occupancy), Caudate\Putamen mean: 91.3% and 88.5% and 84.9% and 88.1%
  Percent maximum displacement (= % DAT occupancy), Putamen: 90.9% and 89.0% and 85.9% and 89.1%
[1]; [11]
  Percent maximum displacement (= % DAT occupancy), Caudate nucleus: 87.9% and 90.2%
  Percent maximum displacement (= % DAT occupancy), Caudate\Putamen mean: 88.9% and 89.5%
  Percent maximum displacement (= % DAT occupancy), Putamen: 89.9% and 88.9%
[1]; MPH 4.3 mg, bolus plus 4-step infusion over 40 min, mean of two animals
  Percent maximum displacement (= % DAT occupancy), Caudate\putamen mean, Mean: 89.2%
[1]; bolus + 4 step infusion, matched delivery, MPH relative to DAS
  Brain entry faster than DAS: ~3 fold
[1]; i.v. bolus, MPH relative to DAS
  Displacement of [18F]-FE-PE2I / DAT occupancy faster than DAS (displacement half-times): approximately 3 fold
[2]; MPH 0.1 mg/kg i.v. 3 min bolus, group mean
  Cmax, Mean ± SD: 169.2 ± 28.4 ng/mL
[2]; [9]
  Cmax: 137 ng/mL and 177 ng/mL and 117 ng/mL
[2]; [10]
  Cmax: 823 ng/mL and 609 ng/mL and 729 ng/mL
[2]; [11]
  Average plasma (infusion period): 111.9 ng/mL and 91.52 ng/mL
[2]; rhesus monkey, plasma, iv, 0.1 mg/kg, MPH 0.1 mg/kg i.v. 3 min bolus, group mean, read-out: Cmax, Mean ± SD
  Cmax: 169 ± 28.4 ng/mL
[2]; rhesus monkey, plasma, iv, 0.5 mg/kg, MPH 0.5 mg/kg i.v. 3 min bolus, group mean, read-out: Cmax, Mean ± SD
  Cmax: 823 ± 111 ng/mL
[2]; rhesus monkey, plasma, iv, 0.5 mg/kg, MPH 0.5 mg/kg i.v. 3 min bolus, individual animals A-D, read-out: Cmax
  Cmax: 1130 ng/mL
[3]; after i.v. administration, data not shown
  Changes in heart rate, respiratory rate, blood pressure, oxygen saturation and temperature compared with baseline: No changes outside physiologically accepted limits
[3]; all doses examined
  Tolerability of i.v. administration: tolerated
[4]
  DAT occupancy OC50: 6 ng/mL
[5]
  Plasma protein binding: < 14%
